Data as given in PubChem BioAssay AID256 (DTP/NCI, 2004).
Values joined by “and” are separate entries in the source; they are usually repeats but may differ in a detail not shown here. Equal values may be shown once. Toxic doses and inconclusive results are not listed. Residues, ends and D or L forms follow the SMILES beside them. *: point of attachment. Trt = c1ccc(C(c2ccccc2)(c2ccccc2)*)cc1; Cbz = O=C(OCc1ccccc1)*

Tested on: CD2F1 mice, L1210 leukemia ip, survival T/C
Test: NCI In Vivo Anticancer Drug Screen. Data for tumor model L1210 Leukemia (intraperitoneal) in CD2F1 (CDF1) mice
Conditions: higher = longer survival
Method in brief: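 Tumor-bearing mice (transplanted tumor) were split into treated and vehicle control groups, and the measured endpoint of each treated group was divided by that of its vehicle controls.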

[1] = endpoint: mean survival time, dose: 100.0 mg/kg/injection, schedule: Q01DX009 (ip), vehicle: saline with Tween-80
[2] = endpoint: mean survival time, dose: 100.0 mg/kg/injection, schedule: Q04DX003 (ip), vehicle: saline with Tween-80
[3] = endpoint: mean survival time, dose: 200.0 mg/kg/injection, schedule: Q01DX009 (ip), vehicle: saline with Tween-80
[4] = endpoint: mean survival time, dose: 200.0 mg/kg/injection, schedule: Q04DX003 (ip), vehicle: saline with Tween-80
[5] = endpoint: mean survival time, dose: 400.0 mg/kg/injection, schedule: Q01DX009 (ip), vehicle: saline with Tween-80
[6] = endpoint: mean survival time, dose: 400.0 mg/kg/injection, schedule: Q04DX003 (ip), vehicle: saline with Tween-80
[7] = endpoint: mean survival time, dose: 50.0 mg/kg/injection, schedule: Q01DX009 (ip), vehicle: Klucel (hydroxypropylcellulose) (HPC)
[8] = endpoint: mean survival time, dose: 100.0 mg/kg/injection, schedule: Q01DX009 (ip), vehicle: Klucel (hydroxypropylcellulose) (HPC)
[9] = endpoint: mean survival time, dose: 200.0 mg/kg/injection, schedule: Q01DX009 (ip), vehicle: Klucel (hydroxypropylcellulose) (HPC)
[10] = endpoint: mean survival time, dose: 100.0 mg/kg/injection, schedule: Q01DX001 (ip), vehicle: saline with Tween-80
[11] = endpoint: mean survival time, dose: 200.0 mg/kg/injection, schedule: Q01DX001 (ip), vehicle: saline with Tween-80
[12] = endpoint: mean survival time, dose: 100.0 mg/kg/injection, schedule: Q04DX003 (ip), vehicle: saline
[13] = endpoint: mean survival time, dose: 200.0 mg/kg/injection, schedule: Q04DX003 (ip), vehicle: saline

CC(C)OC(=O)C12Oc3ccc(-c4ccc5c(c4O)C(O)=C4C(=O)CC(C)C(O)C4(C(=O)OC(C)C)O5)c(O)c3C(O)=C1C(=O)CC(C)C2O (stereo not drawn)
T/C (endpoint: mean survival time, dose: 1.25 mg/kg/injection, schedule: Q01DX009 (ip), vehicle: saline with Tween-80): 102 % of control
T/C (endpoint: mean survival time, dose: 2.5 mg/kg/injection, schedule: Q01DX009 (ip), vehicle: saline with Tween-80): 95 % of control
T/C (endpoint: mean survival time, dose: 5.0 mg/kg/injection, schedule: Q01DX009 (ip), vehicle: saline with Tween-80): 98 % of control

CCOC(=O)C1CC1C(=O)OCC (stereo not drawn)
T/C [1]: 88 % of control
T/C [2]: 100 % of control
T/C [3]: 104 % of control
T/C [4]: 96 % of control
T/C [5]: 100 % of control
T/C [6]: 103 % of control

CC1(C)OC(C(COC(c2ccccc2)(c2ccccc2)c2ccccc2)OC(=O)c2ccccc2)C(C(COC(c2ccccc2)(c2ccccc2)c2ccccc2)OC(=O)c2ccccc2)O1 (stereo not drawn)
T/C [7]: 98 % of control
T/C [8]: 94 % of control
T/C [9]: 94 % of control

CCN(CC)c1ccc(N(C(C)=O)C(C)=O)cc1
T/C (endpoint: mean survival time, dose: 6.25 mg/kg/injection, schedule: Q04DX003 (ip), vehicle: saline with Tween-80): 91 % of control
T/C (endpoint: mean survival time, dose: 12.5 mg/kg/injection, schedule: Q04DX003 (ip), vehicle: saline with Tween-80): 95 % of control
T/C (endpoint: mean survival time, dose: 25.0 mg/kg/injection, schedule: Q04DX003 (ip), vehicle: saline with Tween-80): 93 % of control

OCCOCC12c3ccccc3C3C(c4ccccc41)C32 (stereo not drawn)
T/C (endpoint: mean survival time, dose: 25.0 mg/kg/injection, schedule: Q01DX001 (ip), vehicle: saline with Tween-80): 91 % of control
T/C (endpoint: mean survival time, dose: 50.0 mg/kg/injection, schedule: Q01DX001 (ip), vehicle: saline with Tween-80): 97 % of control
T/C [10]: 105 % of control
T/C [11]: 94 % of control

C=C(C)COc1cc(C=NCCCC)c(C)cc1C
T/C [1]: 98 % of control
T/C [3]: 94 % of control
T/C [5]: 96 % of control

CC1(OO)CC(=O)OO1 (stereo not drawn)
T/C (endpoint: mean survival time, dose: 5.0 mg/kg/injection, schedule: Q01DX001 (ip), vehicle: saline): 90 % of control
T/C (endpoint: mean survival time, dose: 10.0 mg/kg/injection, schedule: Q01DX001 (ip), vehicle: saline): 95 % of control
T/C (endpoint: mean survival time, dose: 20.0 mg/kg/injection, schedule: Q01DX001 (ip), vehicle: saline): 92 % of control

COC(=O)C(CSC(c1ccccc1)(c1ccccc1)c1ccccc1)NC(=O)C(CC(N)=O)NC(=O)OCc1ccccc1 (stereo not drawn) (Cbz-Asn-Cys(Trt)-OMe; configuration not given here)
T/C (endpoint: median survival time, dose: 12.5 mg/kg/injection, schedule: Q01DX009 (ip), vehicle: distilled water + Tween-80): 101 % of control
T/C (endpoint: median survival time, dose: 25.0 mg/kg/injection, schedule: Q01DX009 (ip), vehicle: distilled water + Tween-80): 108 % of control
T/C (endpoint: median survival time, dose: 50.0 mg/kg/injection, schedule: Q01DX009 (ip), vehicle: distilled water + Tween-80): 113 % of control and 107 % of control
T/C (endpoint: median survival time, dose: 100.0 mg/kg/injection, schedule: Q01DX009 (ip), vehicle: distilled water + Tween-80): 114 % of control
T/C (endpoint: median survival time, dose: 200.0 mg/kg/injection, schedule: Q01DX009 (ip), vehicle: distilled water + Tween-80): 162 % of control

C#CC(C)OCC1CNC(=S)O1 (stereo not drawn)
T/C (endpoint: mean survival time, dose: 25.0 mg/kg/injection, schedule: Q01DX009 (ip), vehicle: Klucel (hydroxypropylcellulose) (HPC)): 96 % of control
T/C [7]: 92 % of control
T/C [8]: 94 % of control
T/C [9]: 97 % of control
T/C (endpoint: mean survival time, dose: 400.0 mg/kg/injection, schedule: Q01DX009 (ip), vehicle: Klucel (hydroxypropylcellulose) (HPC)): 91 % of control

COCC/C=C/CCl
T/C (endpoint: mean survival time, dose: 25.0 mg/kg/injection, schedule: Q01DX009 (ip), vehicle: saline with Tween-80): 100 % of control
T/C (endpoint: mean survival time, dose: 50.0 mg/kg/injection, schedule: Q01DX009 (ip), vehicle: saline with Tween-80): 92 % of control
T/C [1]: 100 % of control

OC1CCCC2CCCCC12 (stereo not drawn)
T/C [2]: 100 % of control
T/C [4]: 109 % of control
T/C [6]: 94 % of control

S=c1[nH]ncn1/N=C/c1ccccc1Cl
T/C [2]: 95 % of control
T/C [4]: 101 % of control
T/C [6]: 89 % of control

C[S+](C)CCC1NC(=O)NC1=O (stereo not drawn)
T/C [2]: 107 % of control
T/C [12]: 98 % of control
T/C [4]: 102 % of control
T/C [13]: 102 % of control
T/C [6]: 93 % of control

COC(=O)C12CCC1(Cl)CC2 (stereo not drawn)
T/C [12]: 98 % of control
T/C [13]: 93 % of control
T/C (endpoint: mean survival time, dose: 400.0 mg/kg/injection, schedule: Q04DX003 (ip), vehicle: saline): 96 % of control

O=C(C1CCC2(CCCCC2)CC1)n1ccnc1
T/C (endpoint: mean survival time, dose: 12.5 mg/kg/injection, schedule: Q01DX009 (ip), vehicle: other): 95 % of control
T/C (endpoint: mean survival time, dose: 25.0 mg/kg/injection, schedule: Q01DX009 (ip), vehicle: other): 89 % of control
T/C (endpoint: mean survival time, dose: 50.0 mg/kg/injection, schedule: Q01DX009 (ip), vehicle: other): 106 % of control
T/C (endpoint: mean survival time, dose: 100.0 mg/kg/injection, schedule: Q01DX009 (ip), vehicle: other): 93 % of control
T/C (endpoint: mean survival time, dose: 200.0 mg/kg/injection, schedule: Q01DX009 (ip), vehicle: other): 97 % of control

C[CH2][Pb]([Cl])([CH2]C)[CH2]C
T/C (endpoint: mean survival time, dose: 1.56 mg/kg/injection, schedule: Q01DX009 (ip), vehicle: other): 103 % of control
T/C (endpoint: mean survival time, dose: 3.12 mg/kg/injection, schedule: Q01DX009 (ip), vehicle: other): 100 % of control
T/C (endpoint: mean survival time, dose: 6.25 mg/kg/injection, schedule: Q01DX009 (ip), vehicle: other): 90 % of control

O=C1/C(=C/c2ccccc2)CCS(=O)(=O)c2ccccc21
T/C [10]: 97 % of control
T/C [11]: 97 % of control
T/C (endpoint: mean survival time, dose: 400.0 mg/kg/injection, schedule: Q01DX001 (ip), vehicle: saline with Tween-80): 90 % of control

Fc1c(F)c(F)c([Si](c2c(F)c(F)c(F)c(F)c2F)(c2c(F)c(F)c(F)c(F)c2F)c2c(F)c(F)c(F)c(F)c2F)c(F)c1F
T/C [1]: 97 % of control
T/C [3]: 100 % of control
T/C [5]: 98 % of control

C[P+](c1ccc(F)cc1)(c1ccc(F)cc1)c1ccc(F)cc1
T/C (endpoint: mean survival time, dose: 25.0 mg/kg/injection, schedule: Q04DX002 (ip), vehicle: saline with Tween-80): 100 % of control
T/C (endpoint: mean survival time, dose: 50.0 mg/kg/injection, schedule: Q04DX002 (ip), vehicle: saline with Tween-80): 92 % of control

CCCCC1CCCCCCc2[nH]c(/C=C3\N=C(c4ccc[nH]4)C=C3OC)cc21 (stereo not drawn)
T/C (endpoint: mean survival time, dose: 0.12 mg/kg/injection, schedule: Q01DX009 (ip), vehicle: saline with Tween-80): 103 % of control
T/C (endpoint: mean survival time, dose: 0.25 mg/kg/injection, schedule: Q01DX009 (ip), vehicle: saline with Tween-80): 107 % of control
T/C (endpoint: mean survival time, dose: 0.5 mg/kg/injection, schedule: Q01DX009 (ip), vehicle: saline with Tween-80): 116 % of control
T/C (endpoint: mean survival time, dose: 1.0 mg/kg/injection, schedule: Q01DX009 (ip), vehicle: saline with Tween-80): 105 % of control
T/C (endpoint: mean survival time, dose: 2.0 mg/kg/injection, schedule: Q01DX009 (ip), vehicle: saline with Tween-80): 106 % of control

CC(C)(C)C1OCCCO1
T/C (endpoint: mean survival time, dose: 100.0 mg/kg/injection, schedule: Q04DX002 (ip), vehicle: saline): 104 % of control
T/C (endpoint: mean survival time, dose: 200.0 mg/kg/injection, schedule: Q04DX002 (ip), vehicle: saline): 110 % of control
T/C (endpoint: mean survival time, dose: 400.0 mg/kg/injection, schedule: Q04DX002 (ip), vehicle: saline): 104 % of control

CC1(C)CC(=O)C2OC2(C)C1 (stereo not drawn)
T/C [1]: 100 % of control
T/C [2]: 95 % of control
T/C [3]: 97 % of control
T/C [4]: 103 % of control
T/C [5]: 96 % of control
T/C [6]: 97 % of control

Cc1ccc(C)c(C(O)C(=O)O)c1 (stereo not drawn)
T/C (endpoint: mean survival time, dose: 100.0 mg/kg/injection, schedule: Q04DX002 (ip), vehicle: Klucel (hydroxypropylcellulose) (HPC)): 94 % of control
T/C (endpoint: mean survival time, dose: 200.0 mg/kg/injection, schedule: Q04DX002 (ip), vehicle: Klucel (hydroxypropylcellulose) (HPC)): 105 % of control
T/C (endpoint: mean survival time, dose: 400.0 mg/kg/injection, schedule: Q04DX002 (ip), vehicle: Klucel (hydroxypropylcellulose) (HPC)): 98 % of control

O=C1c2ccccc2C(=O)N1c1nc2ccccc2s1
T/C (endpoint: mean survival time, dose: 100.0 mg/kg/injection, schedule: Q04DX002 (ip), vehicle: saline with Tween-80): 96 % of control
T/C (endpoint: mean survival time, dose: 200.0 mg/kg/injection, schedule: Q04DX002 (ip), vehicle: saline with Tween-80): 89 % of control
T/C (endpoint: mean survival time, dose: 400.0 mg/kg/injection, schedule: Q04DX002 (ip), vehicle: saline with Tween-80): 100 % of control
